Laboratory results published in ChEMBL document CHEMBL1201862, “PubChem BioAssay data set” (2004).
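How tested: cells in 96-well plates exposed to compound for 48 hours at five concentrations. Abbreviation: GI50, concentration required for 50% inhibition of growth.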 Active and inactive are the calls of the source. No stated cut-off is given here; in the data, active = GI50 up to about 1.1 µM and inactive = higher.

Tests used:
Test in all cases: NCI-60 cell line screen, 48 h
[1] = test system: BT-549
[2] = test system: COLO 205
[3] = test system: DU-145
[4] = test system: EKVX
[5] = test system: HCT-116
[6] = test system: HCT-15
[7] = test system: Hs-578T
[8] = test system: K562
[9] = test system: KM12
[10] = test system: LOX IMVI
[11] = test system: M14
[12] = test system: MDA-N
[13] = test system: NCI-H460
[14] = test system: OVCAR-5
[15] = test system: OVCAR-8
[16] = test system: PC-3
[17] = test system: SF-268
[18] = test system: SNB-75
[19] = test system: UO-31

SMILES	GI50 [1]	GI50 [2]	GI50 [3]	GI50 [4]	GI50 [5]	GI50 [6]	GI50 [7]	GI50 [8]	GI50 [9]	GI50 [10]	GI50 [11]	GI50 [12]	GI50 [13]	GI50 [14]	GI50 [15]	GI50 [16]	GI50 [17]	GI50 [18]	GI50 [19]
O=c1ccn(C2OC(CO)C(O)C2[Se]c2ccccc2)c(=O)[nH]1 (centres undefined)	> 100 µM (inactive)	> 100 µM (inactive)	> 100 µM (inactive)	> 100 µM (inactive)	> 100 µM (inactive)	> 100 µM	> 100 µM (inactive)	> 100 µM (inactive)	> 100 µM (inactive)	> 100 µM (inactive)	> 100 µM (inactive)	> 100 µM (inactive)	> 100 µM (inactive)	> 100 µM (inactive)	> 100 µM (inactive)	> 100 µM (inactive)	> 100 µM (inactive)	> 100 µM (inactive)	> 100 µM (inactive)
C/N=c1\sc2nc(C#N)c(C#N)nc2n1C	28.8 µM (inactive)	16.4 µM (inactive)	36.6 µM (inactive)	18.5 µM (inactive)	18.9 µM (inactive)	19.2 µM	31.1 µM (inactive)	25.6 µM (inactive)	27.5 µM (inactive)	17.8 µM (inactive)	23 µM (inactive)	22.4 µM (inactive)	19.1 µM (inactive)	19.2 µM (inactive)	> 10 µM (inactive)	40.2 µM (inactive)	32.4 µM (inactive)	19 µM (inactive)	20.4 µM (inactive)
Cc1nc2ccc(S(=O)(=O)O)cc2c(=O)n1-c1ccc(C(=O)NN2C(=O)C(Cl)C2c2ccccc2O)cc1 (centres undefined)	> 100 µM (inactive)	> 100 µM (inactive)	> 100 µM (inactive)	60.1 µM (inactive)	> 100 µM (inactive)	> 100 µM	> 100 µM (inactive)	> 100 µM (inactive)	> 100 µM (inactive)	> 100 µM (inactive)	> 100 µM (inactive)	> 100 µM (inactive)		> 100 µM (inactive)	> 100 µM (inactive)	> 100 µM (inactive)	> 100 µM (inactive)	> 100 µM (inactive)	> 100 µM (inactive)
Cn1c2ccccc2n2c3ccccc3c(=S)c(C#N)c12	> 100 µM (inactive)	> 10 µM (inactive)	> 100 µM (inactive)	> 100 µM (inactive)	> 100 µM (inactive)	> 100 µM	> 100 µM (inactive)	> 100 µM (inactive)	> 100 µM (inactive)	> 100 µM (inactive)	> 100 µM (inactive)	> 100 µM (inactive)	> 100 µM (inactive)	> 100 µM (inactive)	> 100 µM (inactive)	> 100 µM (inactive)	> 100 µM (inactive)	> 100 µM (inactive)	> 100 µM (inactive)
COc1ccc(CCNC(=O)Cc2cc(OC)c(OC)cc2CO)cc1OC	> 100 µM (inactive)	> 100 µM (inactive)	> 100 µM (inactive)	> 100 µM (inactive)	> 100 µM (inactive)	> 100 µM	> 100 µM (inactive)	> 100 µM (inactive)	> 100 µM (inactive)	> 100 µM (inactive)	> 100 µM (inactive)	> 100 µM (inactive)	> 100 µM (inactive)	> 100 µM (inactive)	> 100 µM (inactive)	> 100 µM (inactive)	> 100 µM (inactive)	> 100 µM (inactive)	> 100 µM (inactive)
COC(=O)c1ccc(Oc2nc3ccccc3nc2-c2cccs2)cc1	45.7 µM (inactive)	> 100 µM (inactive)	> 100 µM (inactive)	> 100 µM (inactive)	41.3 µM (inactive)	75.5 µM	19.5 µM (inactive)	> 10 µM (inactive)	> 100 µM (inactive)	> 100 µM (inactive)	89.5 µM (inactive)	> 100 µM (inactive)	33.7 µM (inactive)	> 100 µM (inactive)	51.8 µM (inactive)	44.9 µM (inactive)	21.3 µM (inactive)	7.83 µM (inactive)	> 100 µM (inactive)
CC(C)=CCNc1ncnc2c1c(C#N)cn2C1OC(CO)C(O)C1O (centres undefined)	> 100 µM (inactive)	0.716 µM (active)	10.9 µM (inactive)	10.4 µM (inactive)	4.61 µM (inactive)	0.603 µM	56.9 µM (inactive)	3.86 µM (inactive)	1.36 µM (inactive)	> 79.8 µM (inactive)	> 58.3 µM (inactive)	42.1 µM (inactive)	4.02 µM (inactive)	> 66.2 µM (inactive)	50.7 µM (inactive)	32.5 µM (inactive)	> 100 µM (inactive)	75.7 µM (inactive)	32.8 µM (inactive)
CCOC(=O)/C=C(/C(=O)OCC)n1ccc(=O)n(Cc2cnnn2COCCOC(C)=O)c1=O	19.5 µM (inactive)	2.92 µM (inactive)	20.7 µM (inactive)	16.5 µM (inactive)	18.9 µM (inactive)	8.77 µM	21 µM (inactive)	4.05 µM (inactive)	28.6 µM (inactive)	17.1 µM (inactive)	17.1 µM (inactive)	23.2 µM (inactive)	> 43 µM (inactive)	18.2 µM (inactive)	16.6 µM (inactive)	17.5 µM (inactive)	20 µM (inactive)	41.2 µM (inactive)	16 µM (inactive)
COc1cccc2c1C(=O)c1ccc3cc(CCl)cc(O)c3c1C2=O	0.305 µM (active)	0.203 µM (active)	0.762 µM (active)	1.09 µM (active)	0.1 µM (active)	0.254 µM	0.362 µM (active)	0.29 µM (active)	0.0605 µM (active)	0.158 µM (active)	0.229 µM (active)	0.231 µM (active)	0.196 µM (active)	0.157 µM (active)	0.228 µM (active)	0.243 µM (active)	0.379 µM (active)	0.94 µM (active)	0.336 µM (active)
O=C1CC[C@@]23CC(=O)O[C@@H]2CCCC3C1 (some centres undefined)	> 100 µM (inactive)	> 100 µM (inactive)	> 100 µM (inactive)	> 100 µM (inactive)	> 100 µM (inactive)	> 100 µM	> 100 µM (inactive)	> 100 µM (inactive)	> 100 µM (inactive)	> 100 µM (inactive)	> 100 µM (inactive)	> 100 µM (inactive)	> 100 µM (inactive)	> 100 µM (inactive)	> 100 µM (inactive)	> 100 µM (inactive)	> 100 µM (inactive)	> 100 µM (inactive)	> 100 µM (inactive)
Cc1cccc(C(C)C)c1NC(=O)C(=O)CC(=O)c1sc(Nc2ccccc2Cl)nc1C	32.7 µM (inactive)	29.9 µM (inactive)	71.4 µM (inactive)	52.2 µM (inactive)	8.79 µM (inactive)	30.9 µM	21.9 µM (inactive)	> 10 µM (inactive)	23.1 µM (inactive)	31.8 µM (inactive)	19.5 µM (inactive)	9.79 µM (inactive)	22.1 µM (inactive)	> 100 µM (inactive)		22.4 µM (inactive)	58.2 µM (inactive)	21.7 µM (inactive)	18.9 µM (inactive)
COC(=O)c1c(C(=O)OC)c2c3ccccc3n(C)c2c2c1c1ccccc1n2C	> 100 µM (inactive)	> 100 µM (inactive)	> 100 µM (inactive)	47.1 µM (inactive)	> 100 µM (inactive)	> 100 µM	> 100 µM (inactive)	> 100 µM (inactive)	> 100 µM (inactive)	> 100 µM (inactive)	> 100 µM (inactive)	> 100 µM (inactive)	> 100 µM (inactive)	61.1 µM (inactive)	> 100 µM (inactive)	54.6 µM (inactive)		25.8 µM (inactive)	16.2 µM (inactive)
O=C1c2cccc3cc([N+](=O)[O-])cc(c23)C(=O)N1CCCN1CCN(CCCNc2ccc3ncn4c5ccccc5c(=O)c2c34)CC1	< 0.005 µM (active)	< 0.005 µM (active)	< 0.005 µM (active)	< 0.005 µM (active)	< 0.005 µM (active)	< 0.005 µM	< 0.005 µM (active)		< 0.005 µM (active)	< 0.005 µM (active)	< 0.005 µM (active)	< 0.005 µM (active)	< 0.005 µM (active)	0.00867 µM (active)	< 0.005 µM (active)	< 0.005 µM (active)	< 0.005 µM (active)	< 0.005 µM (active)	< 0.005 µM (active)
Cc1cc(C)nc(NS(=O)(=O)c2ccc(Nc3c4ccccc4nc4c(C(=O)NC(CO)(CO)CO)cccc34)cc2)n1	21.8 µM (inactive)	20.1 µM (inactive)	55 µM (inactive)	69 µM (inactive)		52 µM	38.4 µM (inactive)	31.4 µM (inactive)	17.9 µM (inactive)	17.3 µM (inactive)	37.2 µM (inactive)	24.1 µM (inactive)	15.8 µM (inactive)	31.5 µM (inactive)	39.3 µM (inactive)	35.6 µM (inactive)	29.5 µM (inactive)	5.65 µM (inactive)	85.1 µM (inactive)
CC(=O)N1CCN(CCCCN2c3ccccc3Sc3cc(N=[N+]=[N-])ccc32)CC1	17.3 µM (inactive)	14.2 µM (inactive)	18.1 µM (inactive)	18.2 µM (inactive)	13.8 µM (inactive)	14.9 µM	15 µM (inactive)	8.65 µM (inactive)	13.5 µM (inactive)	14.9 µM (inactive)		16.7 µM (inactive)	14.1 µM (inactive)	13.7 µM (inactive)	15.4 µM (inactive)	7 µM (inactive)	18.2 µM (inactive)	13 µM (inactive)	11.3 µM (inactive)
